Laboratory results reported in paper PMC7367283, “A PIP2 substitute mediates voltage sensor-pore coupling in KCNQ activation” (Communications Biology, 2020).

Key:
[1] = biological target: IKs channels (Homo sapiens, UniProt P51787); test: Inside-out patch clamp of IKs channels expressed in Xenopus oocytes (rundown and rescue); assay type: cell-based; conditions: 10 µM CP1 on intracellular side; pulses to +80 mV
From the text: We tested whether CP1 can mimic PIP2 in mediating VSD-pore coupling. We co-expressed KCNQ1 with the voltage-dependent lipid phosphatase CiVSP[44] in Xenopus oocytes and recorded KCNQ1 currents using two-electrode voltage clamp with consecutive depolarizing voltage pulses. The current increased upon KCNQ1 activation at the beginning of the first voltage pulse (First trace, Fig. 2a) and then declined due to CiVSP activation to deplete PIP2[18]. A subsequent voltage pulse elicited much smaller KCNQ1 currents (Rundown trace, Fig. 2a) as a result of PIP2 depletion that had insufficient time to be replenished by endogenous enzymes between the pulses. […] Similarly, the IKs channel (KCNQ1 + KCNE1) currents decrease upon co-expression with CiVSP with consecutive voltage pulses (Fig. 2c, d), which is similar to our previous observations. […] To more directly test CP1 effects, we applied CP1 to the intracellular side of the inside-out membrane patch that expressed IKs channels. […]
Macroscopic currents expressed in Xenopus oocytes were recorded from inside-out patches formed with borosilicate pipettes of 0.5–1.0-MΩ resistance. […]

[2] = biological target: pseudo wild-type KCNQ1 (with mutations C214A/G219C/C331A) (Homo sapiens, UniProt P51787, C214A/C331A/G219C); test: Voltage-clamp fluorometry (VCF) of pseudo WT KCNQ1 in Xenopus oocytes; assay type: cell-based; conditions: for G/Gmax Mean: Fig. 3g; for F/Fmax Mean: Fig. 3i
From the text: We employed voltage-clamp fluorometry (VCF) to measure the effects of CP1 on voltage-sensor activation. The emission (F) of Alexa 488 C5 maleimide attached to the S3–S4 linker, at residue C219, of the pseudo wild-type KCNQ1 (with mutations C214A/G219C/C331A) reported VSD movements in response to voltage changes, while the ionic current reported pore opening[45] (Fig. 3f, h). Similar to the WT KCNQ1, the G–V relation of the pseudo WT KCNQ1 shifted to negative voltages by −53.3 ± 3.1 mV in the presence of 10 µM CP1 (Fig. 3g). […] However, the F–V relationship shifted only by −17.3 ± 3.6 mV. […] (Supplementary Fig. 3). […] It is also apparent that at extreme negative voltages ≤ −130 mV, where the voltage sensor seemed not activated (F ~ 0, Fig. 3i), a fraction of the channels was constitutively open (G > 0, Fig. 3b, g).
Oocytes were labeled on ice for 45 min with 10 μM Alexa 488 C5 maleimide (Molecular Probes, Eugene, OR) in high K^+ solution (in mM: 98 KCl, 1.8 CaCl2, and 5 HEPES, pH 7.6). Then the cells were washed with ND96 solution and kept on ice until recording. A CA-1B amplifier was used to record whole-oocyte currents in ND96 solution. Fluorescent signals were recorded simultaneously using a Pin20A photodiode (OSI Optoelectronics, CA), filtered using a FITC filter cube (Leica, Germany, for Alexa 488), and then amplified using a patch-clamp amplifier (EPC10, HEKA, Germany).

shift of F–V relationship (VSD activation) ([2]; 10 µM CP1): −17.3 ± 3.6 mV | shift of G–V relation ([2]; 10 µM CP1): −53.3 ± 3.1 mV | G/Gmax Mean ([2]; 10 µM CP1, 0 mV): 0.7707 | G/Gmax Mean ([2]; 10 µM CP1, 10 mV): 0.7200 | G/Gmax Mean ([2]; 10 µM CP1, 20 mV): 0.6664 | G/Gmax Mean ([2]; 10 µM CP1, 40 mV): 0.5879 | G/Gmax Mean ([2]; 10 µM CP1, -10 mV): 0.8231 | G/Gmax Mean ([2]; 10 µM CP1, -20 mV): 0.8668 | G/Gmax Mean ([2]; 10 µM CP1, -30 mV): 0.9194 | G/Gmax Mean ([2]; 10 µM CP1, -40 mV): 0.9570 | G/Gmax Mean ([2]; 10 µM CP1, -50 mV): 0.9837 | G/Gmax Mean ([2]; 10 µM CP1, -60 mV): 1.0000 | G/Gmax Mean ([2]; 10 µM CP1, -70 mV): 0.9888 | G/Gmax Mean ([2]; 10 µM CP1, -80 mV): 0.9295 | G/Gmax Mean ([2]; 10 µM CP1, -90 mV): 0.8170 | G/Gmax Mean ([2]; 10 µM CP1, -100 mV): 0.6596 | G/Gmax Mean ([2]; 10 µM CP1, -110 mV): 0.4846 | G/Gmax Mean ([2]; 10 µM CP1, -120 mV): 0.3240 | G/Gmax Mean ([2]; 10 µM CP1, -130 mV): 0.2412 | G/Gmax Mean ([2]; 10 µM CP1, -140 mV): 0.1631 | F/Fmax Mean ([2]; 10 µM CP1, 0 mV): 0.9059 | F/Fmax Mean ([2]; 10 µM CP1, 10 mV): 0.9298 | F/Fmax Mean ([2]; 10 µM CP1, 20 mV): 0.9639 | F/Fmax Mean ([2]; 10 µM CP1, 30 mV): 0.9526 | F/Fmax Mean ([2]; 10 µM CP1, 40 mV): 1.0000 | F/Fmax Mean ([2]; 10 µM CP1, -10 mV): 0.8465 | F/Fmax Mean ([2]; 10 µM CP1, -20 mV): 0.8444 | F/Fmax Mean ([2]; 10 µM CP1, -30 mV): 0.7943 | F/Fmax Mean ([2]; 10 µM CP1, -40 mV): 0.7337 | F/Fmax Mean ([2]; 10 µM CP1, -50 mV): 0.6357 | F/Fmax Mean ([2]; 10 µM CP1, -60 mV): 0.5712 | F/Fmax Mean ([2]; 10 µM CP1, -70 mV): 0.4588 | F/Fmax Mean ([2]; 10 µM CP1, -80 mV): 0.4066 | F/Fmax Mean ([2]; 10 µM CP1, -90 mV): 0.2751 | F/Fmax Mean ([2]; 10 µM CP1, -100 mV): 0.1745 | F/Fmax Mean ([2]; 10 µM CP1, -110 mV): 0.1186 | F/Fmax Mean ([2]; 10 µM CP1, -120 mV): 0.0457 | F/Fmax Mean ([2]; 10 µM CP1, -130 mV): 0.0520 | F/Fmax Mean ([2]; 10 µM CP1, -140 mV): 0.0265
Compound: O=S(=O)([O-])Oc1c(-c2sc3c(ccc4cccc(Cl)c43)c2OS(=O)(=O)[O-])[nH]c2ccc(Br)cc12.[Na+].[Na+] [CP1, DISODIUM 5-BROMO-2-[9-CHLORO-3-(SULFONATOOXY) NAPHTHO [1,2-B] THIEN-2-YL]-1H-INDOL-3-YL SULFATE]
IKs current after rundown in inside-out patch [1]: the current increased with consecutive voltage pulses
